The results in this text go back to patent publication US11434241B2, “Pyrimidine derivatives for prevention and treatment of bacterial infections” (UNIVERSITE DE LIEGE, priority 2018, dated 2022).

Usually MIC stands for the smallest concentration in the dilution series that meets the test's criterion for growth inhibition.

Test [1] concerns Staphylococcus epidermidis (ATCC 35984, also known as RP62A or MRSE). Kind of test: MIC determination on S. epidermidis (EUCAST, OD600 after overnight growth in MHB). In kind it is cell-based. How it is done:
The Minimal Inhibitory Concentration (MIC) of molecules 2329, 2348, 2412, 2452 and 2461 was determined on Staphylococcus epidermidis (ATCC 35984, also known as RP62A) according to EUCAST (European Committee on Antimicrobial Susceptibility Testing) recommendations.
Briefly, a single colony grown on a Tryptic Soy Agar (TSA) plate was resuspended and cultured in Tryptic Soy Broth (TSB) overnight (O/N) in aerobic conditions (37° C. with 220 rpm shaking), next day a 1:50 inoculum in Mueller-Hinton broth (MHB) was incubated in aerobic conditions for 3 hr and an inoculum of 1:100 dilution, corresponding to 3×10^5 CFU/ml, was incubated in presence or absence of different concentrations of the molecules in 1% DMSO (vehicle). After O/N growth the OD of each culture was measured at 600 nm in a spectrophotometer (OD600). The MIC represents the concentration at which there is no visible growth of bacteria, i.e. ΔOD at 600 nm equal to zero (blank is the medium alone).
The Minimal Inhibitory Concentration (MIC) of pyrazolopyrimidine molecules 2539, 2544, 2666,2676, 2693, 2783, 2784 and 2782 and of purine molecules 2498, 2511, 2525, 2527, 2833, and 2840 was determined on S. epidermidis (ATCC 35984, also known as RP62A or MRSE) according to EUCAST (European Committee on Antimicrobial Susceptibility Testing) recommendations.
Briefly, a single colony grown on an agar plate was resuspended and cultured in Triptic Soy Broth (TSB) medium overnight (O/N) in aerobic conditions (37° C. with 220 rpm shaking), next day a 1:50 inoculum in Mueller-Hinton broth (MHB) was incubated in aerobic conditions for 3 hr (OD=0.08-0.1) and an inoculum of 1:300 dilution, corresponding to 3×10^5 CFU/ml, was incubated in presence or absence of different concentrations of each of the molecules in 1% DMSO (vehicle). After O/N growth the OD of each culture was measured at 600 nm (600) in a spectrophotometer (Victor 3-Perkin Elmer). The MIC represents the concentration at which there is no visible growth of bacteria, i.e. ΔOD at 600 nm equal to zero (where ΔOD is the difference between the OD with the molecule and the OD of the blank, the medium alone).
(§1) Molecule 36z has been tested for its potential antibacterial activity by determining its minimal inhibitory concentration (MIC) according to protocols recommended by EUCAST to assess the efficacy of antibiotics against bacterial strains. In brief MIC in MRSA (ATCC BAA-1556) or in Xen29 (Perkin Elmer-ATCC 12600) for 36z (molecule 25 in WO2009/034386) was determined by culturing a single colony of MRSA or Xen29 in brain heart infusion (BHI) broth overnight (O/N) in aerobic conditions (37° C. with 220 rpm shaking), while MIC for MRSE (ATCC 35984) was determined by culturing MRSE in TSB O/N. Next day a 1:100 inoculum in Mueller-Hinton broth (MHB) is incubated in aerobic conditions for 3 hr (OD=0.08-0.1) and an inoculum of 1:300 dilution, corresponding to 3×10^5 CFU/ml, is incubated in presence or absence of different concentrations of the tested molecules in 1% DMSO. After O/N growth the OD of each culture was measured at 600 nm (OD600) in a spectrophotometer (Victor 3-Perkin Elmer). The MIC represents the concentration at which there is no visible growth of bacteria, i.e. ΔOD at 600 nm equal to zero (blank is the medium alone). No antibacterial activity was found against MRSA (ATCC BAA-1556), Xen29 (Perkin Elmer-ATCC 12600 or MRSE (ATCC 35984) strains when the molecule was used at concentrations up to 200 μM.

Test [2] deals with S. aureus Xen29 (ATCC 12600). As to the kind of experiment: MIC determination on bioluminescent S. aureus Xen29. Type of test: cell-based, Staphylococcus aureus. Particulars: for antibacterial activity / inhibition of Xen29 growth (in words): MHB medium; for MIC: Staphylococcus aureus. How it is done: (§2) Further experiments are conducted using different strains of S. aureus, as clinically relevant Gram-positive bacterial strains: S. aureus ATCC 25904, methicillin-resistant S. aureus (MRSA) ATCC BAA-1556, Glycopeptide intermediate-resistant (GISA) S. aureus Mu-50 (ATCC 700695) in order to determine the Minimal Inhibitory Concentration (MIC) which is the minimal concentration required to prevent bacterial growth. The bioluminescent strain S. aureus Xen29 (ATCC 12600) was also used. This strain is derived from the parental strain S. aureus ATCC 12600, a pleural fluid isolate, which is also designated as NCTC8532.
(§3) A single colony selected from the different strains of S. aureus is resuspended and cultured in brain heart infusion (BHI) broth overnight (O/N) in aerobic conditions (37° C. with 220 rpm shaking), next day a 1:100 inoculum in Mueller-Hinton broth (MHB) is incubated in aerobic conditions for 3 hr (=OD0.08-0.1) and an inoculum of 1:300 dilution, corresponding to 3×10^5 CFU/ml, is incubated in presence or absence of different concentrations of the tested molecules in 1% DMSO. After O/N growth the OD of each culture was measured at 600 nm (OD600) in a spectrophotometer (Victor 3-Perkin Elmer). The MIC represents the concentration at which there is no visible growth of bacteria, i.e. ΔOD at 600 nm equal to zero (blank is the medium alone). […] The MIC of molecule 2329 against Glycopeptide intermediate-resistant (GISA) S. aureus Mu-50 (ATCC 700695) is in between 25 and 30 μM, while it is above 50 μM for molecules 2348, 2412, and 2452.
(§4) Further experiments are conducted using different strains of S. aureus, as clinically relevant Gram-positive bacterial strains: methicillin-resistant S. aureus (MRSA) ATCC BAA-1556 and S. aureus Xen29 (Perkin Elmer ATCC 12600).
(§5) To determine the MIC of the above mentioned molecules in MRSA or in Xen29, a single colony of MRSA or Xen29 is resuspended and cultured in brain heart infusion (BHI) broth overnight (O/N) in aerobic conditions (37° C. with 220 rpm shaking), next day a 1:100 inoculum in Mueller-Hinton broth (MHB) is incubated in aerobic conditions for 3 hr (OD=0.08-0.1) and an inoculum of 1:300 dilution, corresponding to 3×10^5 CFU/ml, is incubated in presence or absence of different concentrations of the tested molecules in 1% DMSO. After O/N growth the OD of each culture was measured at 600 nm (OD600) in a spectrophotometer (Victor 3-Perkin Elmer). The MIC represents the concentration at which there is no visible growth of bacteria, i.e. ΔOD at 600 nm equal to zero (blank is the medium alone).
as §1

Test [3] deals with methicillin-resistant S. aureus (MRSA) ATCC BAA-1556. Kind of test: MIC determination on methicillin-resistant S. aureus. Particulars: for antibacterial activity against MRSA (in words): MHB medium; for MIC: Staphylococcus aureus. In kind it is cell-based, Staphylococcus aureus. The method, then:
as §2, §3, §4, §5, §1

[4] abbreviates: Staphylococcus epidermidis, Mueller-Hinton broth (MHB), read-out: MIC S. epidermidis RP62.
Setting [5] is: ATCC12600, read-out: MIC S. aureus Xen29.

≈ marks a conversion by molar mass, not a printed value. Where two headings read alike, the source gives them in different places.

Regarding `CCSc1nc(N[C@@H]2C[C@H]2c2ccc(F)c(F)c2)c2cnn(C)c2n1.Cl` [Molecule 2666, N-((1R,2S)-2-(3,4-difluorophenyl)cyclopropyl)-6-(ethylthio)-1-methyl-1H-pyrazolo[3,4-d]pyrimidin-4-amine hydrochloride], the “antibacterial activity / inhibition of MRSE growth (in words)” value in test [1] (MHB medium) is “able to inhibit MRSE growth”. Moreover, the MIC in test [1] (Staphylococcus epidermidis, read-out: MIC MRSE) is 50 µM; in test [2] (ATCC12600, read-out: MIC Xen29) it was 20 µM; in test [3] (read-out: MIC MRSA), 20 µM. For the same compound, in test [2], the “antibacterial activity / inhibition of Xen29 growth (in words)” value is given as “able to inhibit”. Moreover, the “antibacterial activity against MRSA (in words)” value in test [3] is listed as “active”.
For the compound `C=CCn1cnc2c(N[C@@H]3C[C@H]3c3ccc(F)c(F)c3)nc(SCCC)nc21` [Molecule 2412, 9-allyl-N-((1R,2S)-2-(3,4-difluorophenyl)cyclopropyl)-2-(propylthio)-9H-purin-6-amine], the figures for the MIC in test [1] (setting [4]), in test [2] (setting [5]) and in test [3] (read-out: MIC S. aureus MRSA) were over 50 µM, 20 to 25 µM (≈ 8.03 to 10 µg/mL) and 25 to 50 µM (≈ 10 to 20.1 µg/mL), respectively.
`CCn1cnc2c(N[C@@H]3C[C@H]3c3ccc(F)c(F)c3)nc(SC)nc21` [Molecule 2511, N-((1R,2S)-2-(3,4-difluorophenyl)cyclopropyl)-9-ethyl-2-(methylthio)-9H-purin-6-amine]: the “antibacterial activity / inhibition of MRSE growth (in words)” value in test [1] (MHB medium) is “able to inhibit MRSE growth”. Besides, the MIC was over 100 µM in test [1] (MHB medium, tested up to 100 μM, read-out: MIC MRSE); over 100 µM in test [1] (Staphylococcus epidermidis, MHB medium, tested up to 100 μM, read-out: MIC MRSE); 30 µM (≈ 10.8 µg/mL) in test [2] (ATCC12600, read-out: MIC Xen29); 30 µM (≈ 10.8 µg/mL) in test [3] (read-out: MIC MRSA). Further, the “antibacterial activity / inhibition of Xen29 growth (in words)” value in test [2] is given as “able to inhibit”. Also, the “antibacterial activity against MRSA (in words)” value in test [3] is “active”.
Take `C#CCn1cnc2c(N[C@@H]3C[C@H]3c3ccc(F)c(F)c3)nc(SCCC)nc21` [Molecule 2452, N-((1R,2S)-2-(3,4-difluorophenyl)cyclopropyl)-9-(prop-2-yn-1-yl)-2-(propylthio)-9H-purin-6-amine]: the results for the MIC in test [1] (setting [4]), in test [2] (setting [5]) and in test [3] (read-out: MIC S. aureus MRSA) were over 50 µM, 20 to 25 µM (≈ 7.99 to 9.99 µg/mL) and 25 to 50 µM (≈ 9.99 to 20 µg/mL), respectively.
In the same order, the values of `CCCSc1nc(N[C@@H]2C[C@H]2c2ccc(F)c(F)c2)c2ncn(CC)c2n1` [Molecule 2348, N-((1R,2S)-2-(3,4-difluorophenyl)cyclopropyl)-9-ethyl-2-(propylthio)-9H-purin-6-amine] are 20 µM (≈ 7.79 µg/mL), 20 to 25 µM (≈ 7.79 to 9.74 µg/mL) and 25 µM (≈ 9.74 µg/mL).
In the case of `CCCSc1nc(N[C@@H]2C[C@H]2c2ccc(F)c(F)c2)c2ncn(C)c2n1` [Molecule 2329, N-((1R,2S)-2-(3,4-difluorophenyl)cyclopropyl)-9-methyl-2-(propylthio)-9H-purin-6-amine], the MIC in test [1] (setting [4]) was 20 µM (≈ 7.51 µg/mL); in test [2] (setting [5]), 20 to 25 µM (≈ 7.51 to 9.39 µg/mL); in test [3] (read-out: MIC S. aureus MRSA) it was 20 µM (≈ 7.51 µg/mL).
